The source of these data is patent US20160057994A1, “Aplatelet Clays for Sustained Release of Active Ingredients” (BioGuard Research and Development, Inc., priority 2013, published 2016).

Data set [1] in a line: Accelerated flow-device release test of injection molded sheets. It is filed as physicochemical. The protocol: Injection molded samples (Table 3) were prepared using a Model 45 MINI-JECTOR (Mini-Jector Machinery Corp., Newbury, Ohio). The mold to be used produces test sheets that were 7.5×5 cm and 1 mm thick. The polyethylene used was powdered Quantum Microthene (XU594, 35 mesh). The polymer was mixed with the aplatelet clay or aplatelet nanoclay to provide a final ratio of 2 parts trifluralin to 20 parts polymer (24 gm load for each injection). For the PE, the injector is set up to melt the mixture at 127° C., with the injection nozzle heated to 138° C. Polypropylene is melted and injected at 163° C.
These sheets were washed in 90% MeOH to remove surface TFN contamination and placed into a flow device that exposes the sample to water that contains 0.01% Tween 20 and 0.5% MeOH. The system is operated at room temperature (ca. 23° C.). These conditions are used as an accelerated test in which 24 hours represents 2-3 years of exposure in the environment. During the first few hours, the release rate is high, usually over 100 μg/cm^2/day.

A short description of data set [2]: Accelerated flow-device release test of extruded/spun fibers. Type of data set: physicochemical. Conditions: trifluralin/nanoclay/polypropylene fiber material, water with 0.01% Tween 20, ca. 23° C. The protocol:
For extrusion and spinning of fibers, the trifluralin-loaded nanoclay is prepared from batches containing 3500 grams of trifluralin and 5476 grams of the nanoclay by the method described in Example 1. The particle size requirement is that the sample pass through a #60 U.S. Sieve (<250 microns). The loading of the trifuralin/nanoclay/polypropylene fiber material in a polyester matrix that is adjusted to provide between 4 and 8% TFN (w/w) for the first fiber run, and 3% TFN (w/w) for the second test run. Pelletized PP material is used for the extrusion and spinning of fibers.
These samples are placed in a flow device that exposed the sample to water that contains 0.01% Tween 20. It is operated at room temperature (ca. 23° C.). These conditions are used as an accelerated test in which 24 hours represents 2 or 3 years of exposure in the environment. This correlation is based on the slope of Arrenhius plots over a temperature range of 10° C. to 50° C. similar systems. During the first few hours, the release rate is high, usually over 100 μg/cm^2/day. The test is continued until the release rate reaches the steady state.

In the case of `CCCN(CCC)c1c([N+](=O)[O-])cc(C(F)(F)F)cc1[N+](=O)[O-]` [trifluralin, Trifluralin], the “release rate during the first few hours” value is “over 100 μg/cm^2/day” in data set [1] (injection molded polymer sheets with trifluralin-loaded aplatelet clay or nanoclay, water with 0.01% Tween 20 and 0.5% MeOH, ca. 23° C., first few hours); “over 100 μg/cm^2/day” in data set [2]. In data set [1] (polypropylene matrix versus standard polyethylene), the “rate of trifluralin release from polypropylene relative to standard polyethylene” value is no less than 2%.
